Measured values from ChEMBL document CHEMBL2407067, “Pyridone-conjugated monobactam antibiotics with gram-negative activity” (J Med Chem, 2013).
Values after ≈ are worked out from the molar mass of the structure shown.

How the values were obtained:
[1] = tested on: Klebsiella pneumoniae; assay: Antibacterial activity against Klebsiella pneumoniae 1000-02 by broth microdilution method; type: functional
[2] = tested on: Acinetobacter baumannii; assay: Antibacterial activity against Acinetobacter baumannii AB-3167 by broth microdilution method; type: functional
[3] = tested on: Pseudomonas aeruginosa; assay: Antibacterial activity against Pseudomonas aeruginosa 1042-06 by broth microdilution method; type: functional
[4] = tested on: Klebsiella pneumoniae; assay: Antibacterial activity against Klebsiella pneumoniae 1487-07 by broth microdilution method; type: functional
[5] = tested on: Pseudomonas aeruginosa; assay: microbe, parasite or virus in culture; conditions: 1091-05
Description: Antibacterial activity against Pseudomonas aeruginosa 1091-05 by broth microdilution method

[6] = tested on: Klebsiella pneumoniae; assay: Antibacterial activity against Klebsiella pneumoniae expressing defined beta-lactamase by broth microdilution method; type: functional
[7] = tested on: Escherichia coli; assay: Antibacterial activity against Escherichia coli expressing ESBL by broth microdilution method; type: functional
[8] = tested on: Escherichia coli; assay: Antibacterial activity against Escherichia coli expressing CTX-M by broth microdilution method; type: functional
[9] = tested on: Pseudomonas aeruginosa; assay: Antibacterial activity against Pseudomonas aeruginosa from cystic fibrosis patients by broth microdilution method; type: functional
[10] = tested on: Klebsiella pneumoniae; assay: Antibacterial activity against Klebsiella pneumoniae expressing ESBL by broth microdilution method; type: functional
[11] = tested on: Pseudomonas aeruginosa; assay: Antibacterial activity against Pseudomonas aeruginosa expressing metallo-beta-lactamase by broth microdilution method; type: functional
[12] = tested on: Escherichia coli; assay: Antibacterial activity against Escherichia coli expressing defined beta-lactamase by broth microdilution method; type: functional
[13] = tested on: Acinetobacter sp.; assay: Antibacterial activity against Acinetobacter spp. by broth microdilution method; type: functional
[14] = tested on: Klebsiella pneumoniae; assay: Antibacterial activity against Klebsiella pneumoniae expressing KPC by broth microdilution method; type: functional

Row | SMILES | MIC [1] [µg/mL] | MIC [2] [µg/mL] | MIC [3] [µg/mL] | MIC [4] [µg/mL] | MIC [5] [µg/mL] | other results
1 | Nc1nc(/C(=N/Oc2ccccc2)C(=O)N[C@@H]2C(=O)N(S(=O)(=O)O)[C@@H]2CNC(=O)NCc2cc(=O)c(O)cn2O)cs1 | > 64 | 0.5 (≈ 0.803 µM) | 16 (≈ 25.7 µM) | > 64 | 0.5 (≈ 0.803 µM) | 
2 | Nc1nc(/C(=N/OC2CCCC2)C(=O)N[C@@H]2C(=O)N(S(=O)(=O)O)[C@@H]2CNC(=O)NCc2cc(=O)c(O)cn2O)cs1 | 8 (≈ 13 µM) | 1 (≈ 1.63 µM) | 16 (≈ 26 µM) | 32 (≈ 52.1 µM) | 1 (≈ 1.63 µM) | 
3 | CC(C)(O/N=C(\C(=O)N[C@@H]1C(=O)N(S(=O)(=O)O)[C@@H]1CNS(=O)(=O)NCc1cc(=O)c(O)cn1O)c1csc(N)n1)C(=O)O |  | 1 (≈ 1.5 µM) | 16 (≈ 23.9 µM) | 32 (≈ 47.9 µM) | 1 (≈ 1.5 µM) | 
4 | CC(C)(O/N=C(\C(=O)N[C@@H]1C(=O)N(S(=O)(=O)O)[C@@H]1Cn1cc(-c2cc(=O)c(O)cn2O)nn1)c1csc(N)n1)C(=O)O |  | 0.125 (≈ 0.199 µM) |  |  | 0.125 (≈ 0.199 µM) | 
5 | CC(C)(O/N=C(\C(=O)N[C@@H]1C(=O)N(S(=O)(=O)O)[C@@H]1CNc1cc(C(=O)NCc2cc(=O)c(O)cn2O)ccn1)c1csc(N)n1)C(=O)O |  | 0.125 (≈ 0.176 µM) | 1 (≈ 1.41 µM) | 16 (≈ 22.5 µM) |  | 
6 | CC(C)C[C@H](O/N=C(\C(=O)N[C@@H]1C(=O)N(S(=O)(=O)O)[C@@H]1CNC(=O)NCc1cc(=O)c(O)cn1O)c1csc(N)n1)C(=O)O |  | 1 (≈ 1.51 µM) | 16 (≈ 24.2 µM) | 1 (≈ 1.51 µM) | 1 (≈ 1.51 µM) | 
7 | Nc1nc(/C(=N/O[C@@H](Cc2ccccc2)C(=O)O)C(=O)N[C@@H]2C(=O)N(S(=O)(=O)O)[C@@H]2CNC(=O)NCc2cc(=O)c(O)cn2O)cs1 |  |  | 8 (≈ 11.5 µM) | 1 (≈ 1.44 µM) | 1 (≈ 1.44 µM) | 
8 | O=C(O)c1cn(C2CC2)c2cc(N3CCNCC3)c(F)cc2c1=O [CIPROFLOXACIN] |  | 0.06 (≈ 0.181 µM) | 64 (≈ 193 µM) |  |  | MIC50 [6]: 0.5 µg/mL (≈ 1.51 µM); MIC50 [7]: > 64 µg/mL; MIC90 [7]: > 64 µg/mL; MIC90 [8]: > 64 µg/mL; MIC50 [9]: 2 µg/mL (≈ 6.04 µM); MIC90 [9]: 16 µg/mL (≈ 48.3 µM); MIC50 [10]: 0.25 µg/mL (≈ 0.754 µM); MIC50 [11]: 32 µg/mL (≈ 96.6 µM); MIC90 [11]: > 64 µg/mL; MIC50 [12]: 0.03 µg/mL (≈ 0.0905 µM); MIC90 [12]: 0.06 µg/mL (≈ 0.181 µM); MIC50 [13]: 0.5 µg/mL (≈ 1.51 µM); MIC90 [13]: > 64 µg/mL
9 | C[C@@H](O)[C@H]1C(=O)N2C(C(=O)O)=C(S[C@@H]3CN[C@H](C(=O)N(C)C)C3)[C@H](C)[C@H]12 [MEROPENEM] | 0.25 (≈ 0.652 µM) | 0.25 (≈ 0.652 µM) |  |  | 2 (≈ 5.22 µM) | MIC50 [6]: 0.03 µg/mL (≈ 0.0782 µM); MIC90 [6]: 0.25 µg/mL (≈ 0.652 µM); MIC50 [7]: 0.03 µg/mL (≈ 0.0782 µM); MIC90 [7]: 0.06 µg/mL (≈ 0.156 µM); MIC50 [8]: 0.03 µg/mL (≈ 0.0782 µM); MIC90 [8]: 0.06 µg/mL (≈ 0.156 µM); MIC50 [9]: 1 µg/mL (≈ 2.61 µM); MIC90 [9]: 16 µg/mL (≈ 41.7 µM); MIC50 [10]: 0.03 µg/mL (≈ 0.0782 µM); MIC90 [10]: 0.25 µg/mL (≈ 0.652 µM); MIC50 [12]: 0.03 µg/mL (≈ 0.0782 µM); MIC90 [12]: 0.06 µg/mL (≈ 0.156 µM); MIC50 [14]: 32 µg/mL (≈ 83.4 µM); MIC90 [14]: > 64 µg/mL; MIC50 [13]: 1 µg/mL (≈ 2.61 µM); MIC90 [13]: 32 µg/mL (≈ 83.4 µM)

More lines, main results first:

Row | MIC [1] [µg/mL] | MIC [2] [µg/mL] | MIC [3] [µg/mL] | MIC [4] [µg/mL] | MIC [5] [µg/mL] | SMILES | other results
10 | 8 (≈ 12.7 µM) | 0.5 (≈ 0.795 µM) | 16 (≈ 25.5 µM) | 32 (≈ 50.9 µM) | 0.5 (≈ 0.795 µM) | Nc1nc(/C(=N/OCc2nnn[nH]2)C(=O)N[C@@H]2C(=O)N(S(=O)(=O)O)[C@@H]2CNC(=O)NCc2cc(=O)c(O)cn2O)cs1 | 
11 | 16 (≈ 24.9 µM) | 1 (≈ 1.55 µM) | > 64 | 16 (≈ 24.9 µM) | 1 (≈ 1.55 µM) | Nc1nc(/C(=N/OCc2cscn2)C(=O)N[C@@H]2C(=O)N(S(=O)(=O)O)[C@@H]2CNC(=O)NCc2cc(=O)c(O)cn2O)cs1 | 
12 | 32 (≈ 54.2 µM) | 0.5 (≈ 0.847 µM) | 16 (≈ 27.1 µM) | 32 (≈ 54.2 µM) | 0.5 (≈ 0.847 µM) | Nc1nc(/C(=N/OCCO)C(=O)N[C@@H]2C(=O)N(S(=O)(=O)O)[C@@H]2CNC(=O)NCc2cc(=O)c(O)cn2O)cs1 | 
13 |  |  | 4 (≈ 6.62 µM) | 8 (≈ 13.2 µM) | 0.125 (≈ 0.207 µM) | Nc1nc(/C(=N/OCC(=O)O)C(=O)N[C@@H]2C(=O)N(S(=O)(=O)O)[C@@H]2CNC(=O)NCc2cc(=O)c(O)cn2O)cs1 | 
